According to ChEMBL document CHEMBL6182894, “Design, synthesis, and biological evaluation of quinolinyl-ureido-phenyl-hydrazide derivatives and quinolinyl-hydrazide derivatives as anticancer agents targeting Nur77-mediated ferroptosis” (Eur J Med Chem, 2025):

How the values were obtained:
MCF7 [1] = assay: Antiproliferative activity against human MCF7 cells assessed as inhibition of cell growth at 50 uM by MTT assay relative to control; assay type: functional
HCT-116 = assay: Antiproliferative activity against human HCT-116 cells assessed as inhibition of cell growth by MTT assay
HepG2 = assay: Antiproliferative activity against human HepG2 cells assessed as inhibition of cell growth by MTT assay
[2] = Cytotoxicity in HaCaT cells assessed as inhibition of cell growth by MTT assay; assay type: toxicity, cell-based; details: human
[3] = Cytotoxicity in human MCF-10A cells assessed as inhibition of cell growth by MTT assay; assay type: toxicity, cell-based
MCF7 [4] = assay: cells; details: Homo sapiens, MCF7, 24 h
Description: Antiproliferative activity against human MCF7 cells assessed as inhibition of cell growth incubated for 24 hrs by MTT assay

MDA-MB-231 = assay: cells; details: Homo sapiens, MDA-MB-231, 24 h
Description: Antiproliferative activity against human MDA-MB-231 cells assessed as inhibition of cell growth incubated for 24 hrs by MTT assay

[5] = target: Nuclear receptor subfamily 4immunitygroup A member 1 (Homo sapiens, UniProt P22736); assay: Binding affinity to Nur77 LB domain (unknown origin) assessed as dissociation constant up to 100 uM by fluorescence titration assay
T47D = assay: cells; details: Homo sapiens, 24 h
Description: Antiproliferative activity against human T47D cells assessed as inhibition of cell growth incubated for 24 hrs by MTT assay

Chain of Nuclear receptor subfamily 4immunitygroup A member 1 (P22736 whole entry, the tested form may be a part): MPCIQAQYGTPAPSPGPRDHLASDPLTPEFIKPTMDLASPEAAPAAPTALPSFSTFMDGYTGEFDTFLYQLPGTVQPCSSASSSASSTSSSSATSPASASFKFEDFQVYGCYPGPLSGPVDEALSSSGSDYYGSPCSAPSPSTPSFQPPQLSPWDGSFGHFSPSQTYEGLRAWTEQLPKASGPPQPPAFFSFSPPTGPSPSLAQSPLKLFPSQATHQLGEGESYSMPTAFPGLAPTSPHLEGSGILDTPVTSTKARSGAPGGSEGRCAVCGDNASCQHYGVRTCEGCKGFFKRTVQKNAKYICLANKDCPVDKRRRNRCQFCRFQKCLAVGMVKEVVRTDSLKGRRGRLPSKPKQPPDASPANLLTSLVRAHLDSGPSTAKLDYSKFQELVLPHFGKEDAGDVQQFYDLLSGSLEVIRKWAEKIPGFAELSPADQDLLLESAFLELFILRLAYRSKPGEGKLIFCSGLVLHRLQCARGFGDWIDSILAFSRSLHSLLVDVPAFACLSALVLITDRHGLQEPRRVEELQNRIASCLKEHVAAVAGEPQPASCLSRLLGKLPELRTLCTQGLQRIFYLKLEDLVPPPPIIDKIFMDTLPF

SMILES	inhibition at 50 µM (MCF7 [1]) [%]	further results
O=C(Nc1ccc(C(=O)N/N=C/c2cccc(Cl)c2)cc1)Nc1cccc2ncccc12	76.2	IC50 (HCT-116): 10.7 µM; IC50 (HepG2): 15.6 µM; IC50 [2]: > 50 µM; IC50 [3]: > 50 µM; IC50 (MCF7 [4]): 11.4 µM
O=C(Nc1ccc(C(=O)N/N=C/c2ccc(F)cc2F)cc1)Nc1ccc2ncccc2c1	23.2	
COc1ccc(/C=N/NC(=O)c2ccc(NC(=O)Nc3ccc4ncccc4c3)cc2)cc1OC	1.26	
O=C(Nc1ccc(C(=O)N/N=C/c2ccnc3ccccc23)cc1)Nc1ccc2ncccc2c1	1.11	
CC/C(=C(\c1ccccc1)c1ccc(OCCN(C)C)cc1)c1ccccc1 [TAMOXIFEN]		IC50 (MCF7 [4]): 7.68 µM; IC50 (MDA-MB-231): 20.8 µM
CCC/C=N/NC(=O)c1ccc(NC(=O)Nc2ccc3ncccc3c2)cc1	46.6	
Cc1cccc(/C=N/NC(=O)c2ccc3ncccc3c2)c1	50.1	
O=C(Nc1ccc(C(=O)N/N=C/c2ccc(Cl)cc2Cl)cc1)Nc1ccc2ncccc2c1	70.2	
O=C(N/N=C/c1ccco1)c1ccc2ncccc2c1	41.8	
CCOc1ccccc1-n1c(C(C)N2CCN(C(=O)COc3ccc(Cl)cc3)CC2)nc2ccccc2c1=O (stereo not given) [ERASTIN]		IC50 (HCT-116): > 30 µM; IC50 (HepG2): > 30 µM; IC50 (MCF7 [4]): 20.2 µM
O=C(N/N=C/c1ccccc1)c1ccc2ncccc2c1	64.9	
Cc1cc(C)cc(/C=N/NC(=O)c2ccc3ncccc3c2)c1	55.2	
CCCCCCCC(=O)c1c(O)cc(O)cc1CC(=O)OCC [CYTOSPORONE B]		Kd [5]: 15.3 µM
Cc1cc(C)cc(/C=N/NC(=O)c2cccc3ncccc23)c1	68.5	
O=C(N/N=C/c1ccco1)c1cccc2ncccc12	50.9	
CC(C)c1ccc(/C=N/NC(=O)c2ccc(NC(=O)Nc3cccc4ncccc34)cc2)cc1	65.9	
COc1ccc(/C=N/NC(=O)c2ccc(NC(=O)Nc3ccc4ncccc4c3)cc2)c(O)c1	1.01	
Cc1cccc(/C=N/NC(=O)c2ccc(NC(=O)Nc3ccc4ncccc4c3)cc2)c1	68.2	
O=C(Nc1ccc(C(=O)N/N=C/c2cc(Cl)ccc2Cl)cc1)Nc1ccc2ncccc2c1	75.7	IC50 (HCT-116): 8.24 µM; IC50 (HepG2): 9.25 µM; IC50 [2]: 40.1 µM; IC50 [3]: > 50 µM; IC50 (MCF7 [4]): 4.77 µM; IC50 (T47D): 8.71 µM

SMILES	inhibition at 50 µM (MCF7 [1]) [%]	further results
Cc1ccc(F)cc1/C=N/NC(=O)c1ccc2ncccc2c1	73.5	
O=C(N/N=C/c1cccs1)c1cccc2ncccc12	45.7	
Cc1cccc(/C=N/NC(=O)c2ccc(NC(=O)Nc3cccc4ncccc34)cc2)c1	68.6	
COc1ccc(/C=N/NC(=O)c2ccc3ncccc3c2)c(O)c1	71.2	
O=C(Nc1ccc(C(=O)N/N=C/c2ccco2)cc1)Nc1ccc2ncccc2c1	56.2	
COc1ccc(/C=N/NC(=O)c2cccc3ncccc23)cc1	67.9	
O=C(N/N=C/c1cccc(Cl)c1)c1cccc2ncccc12	56.9	
O=C(N/N=C/c1cccs1)c1ccc2ncccc2c1	64.9	
COc1cccc(/C=N/NC(=O)c2ccc(NC(=O)Nc3ccc4ncccc4c3)cc2)c1	1.99	
Cc1ccc(/C=N/NC(=O)c2ccc3ncccc3c2)cc1	76.8	IC50 (HCT-116): 25.3 µM; IC50 (HepG2): 28.1 µM; IC50 [2]: 39.6 µM; IC50 [3]: 40.6 µM; IC50 (MCF7 [4]): 22.3 µM
O=C(Nc1ccc(C(=O)N/N=C/c2ccc(Cl)cc2)cc1)Nc1cccc2ncccc12	53.4	
O=C(Nc1ccc(C(=O)N/N=C/c2ccc(Cl)cc2Cl)cc1)Nc1cccc2ncccc12	74.6	
CCC/C=N/NC(=O)c1ccc2ncccc2c1	65.1	
O=C(N/N=C/c1ccnc2ccccc12)c1ccc2ncccc2c1	55.3	
COc1cc(/C=N/NC(=O)c2ccc(NC(=O)Nc3ccc4ncccc4c3)cc2)cc(OC)c1	56.4	
O=C(Nc1ccc(C(=O)N/N=C/c2ccc(F)cc2F)cc1)Nc1cccc2ncccc12	73.3	
O=C(Nc1ccc(C(=O)N/N=C/c2ccc(Cl)cc2)cc1)Nc1ccc2ncccc2c1	66.4	
O=C(N/N=C/c1ccc(F)cc1)c1ccc2ncccc2c1	60.1	
O=C(N/N=C/c1ccc([N+](=O)[O-])cc1)c1ccc2ncccc2c1	63.2	

SMILES	inhibition at 50 µM (MCF7 [1]) [%]	further results
COc1cccc(/C=N/NC(=O)c2ccc(NC(=O)Nc3cccc4ncccc34)cc2)c1	59	
Cc1cc(C)cc(/C=N/NC(=O)c2ccc(NC(=O)Nc3ccc4ncccc4c3)cc2)c1	19	
Cc1ccccc1/C=N/NC(=O)c1cccc2ncccc12	65.3	
O=C(Nc1ccc(C(=O)N/N=C/c2cccs2)cc1)Nc1ccc2ncccc2c1	15.1	
COc1ccc(/C=N/NC(=O)c2ccc(NC(=O)Nc3ccc4ncccc4c3)cc2)cc1	37.7	
O=C(Nc1ccc(C(=O)N/N=C/c2c[nH]c3ccccc23)cc1)Nc1cccc2ncccc12	30.2	
O=C(N/N=C/c1cc(Cl)ccc1Cl)c1ccc2ncccc2c1	64.7	
Cc1ccc(/C=N/NC(=O)c2cccc3ncccc23)cc1	60.5	
O=C(N/N=C/c1ccccc1)c1cccc2ncccc12	69.3	
O=C(N/N=C/c1ccc(F)cc1F)c1ccc2ncccc2c1	70.8	
O=C(Nc1ccc(C(=O)N/N=C/c2cc(Cl)nc3ccccc23)cc1)Nc1ccc2ncccc2c1	65.4	
COc1ccc(/C=N/NC(=O)c2ccc3ncccc3c2)cc1	66.2	
Cc1ccc(F)cc1/C=N/NC(=O)c1ccc(NC(=O)Nc2cccc3ncccc23)cc1	68.3	
O=C(N/N=C/c1cc(Cl)nc2ccccc12)c1ccc2ncccc2c1	44.1	
O=C(N/N=C/c1ccc(Cl)cc1)c1ccc2ncccc2c1	79	IC50 (HCT-116): 22.9 µM; IC50 (HepG2): 13.9 µM; IC50 [2]: > 50 µM; IC50 [3]: > 50 µM; IC50 (MCF7 [4]): 17.4 µM
O=C(O)c1ccc(/C=N/NC(=O)c2ccc3ncccc3c2)cc1	48	
COc1ccc(/C=N/NC(=O)c2ccc(NC(=O)Nc3cccc4ncccc34)cc2)cc1	72.3	
CCC/C=N/NC(=O)c1cccc2ncccc12	79.2	IC50 (HCT-116): 2.19 µM; IC50 (HepG2): 2.75 µM; IC50 [2]: 45.7 µM; IC50 [3]: 39.5 µM; IC50 (MCF7 [4]): 6.83 µM
